# Test results taken from patent publication US8440710B2, “HSL inhibitors useful in the treatment of diabetes” (Hoffmann-La Roche Inc., priority 2009, dated 2013).
# Biological target: T1, human HSL (Homo sapiens, UniProt Q05469)
# T1 construct: generate a full length human HSL ORF with a 3′-His6 tag; made in house; host or cells: High 5 insect cells (baculovirus, pFast-BAC)
# T1 sequence (Q05469 1-1076): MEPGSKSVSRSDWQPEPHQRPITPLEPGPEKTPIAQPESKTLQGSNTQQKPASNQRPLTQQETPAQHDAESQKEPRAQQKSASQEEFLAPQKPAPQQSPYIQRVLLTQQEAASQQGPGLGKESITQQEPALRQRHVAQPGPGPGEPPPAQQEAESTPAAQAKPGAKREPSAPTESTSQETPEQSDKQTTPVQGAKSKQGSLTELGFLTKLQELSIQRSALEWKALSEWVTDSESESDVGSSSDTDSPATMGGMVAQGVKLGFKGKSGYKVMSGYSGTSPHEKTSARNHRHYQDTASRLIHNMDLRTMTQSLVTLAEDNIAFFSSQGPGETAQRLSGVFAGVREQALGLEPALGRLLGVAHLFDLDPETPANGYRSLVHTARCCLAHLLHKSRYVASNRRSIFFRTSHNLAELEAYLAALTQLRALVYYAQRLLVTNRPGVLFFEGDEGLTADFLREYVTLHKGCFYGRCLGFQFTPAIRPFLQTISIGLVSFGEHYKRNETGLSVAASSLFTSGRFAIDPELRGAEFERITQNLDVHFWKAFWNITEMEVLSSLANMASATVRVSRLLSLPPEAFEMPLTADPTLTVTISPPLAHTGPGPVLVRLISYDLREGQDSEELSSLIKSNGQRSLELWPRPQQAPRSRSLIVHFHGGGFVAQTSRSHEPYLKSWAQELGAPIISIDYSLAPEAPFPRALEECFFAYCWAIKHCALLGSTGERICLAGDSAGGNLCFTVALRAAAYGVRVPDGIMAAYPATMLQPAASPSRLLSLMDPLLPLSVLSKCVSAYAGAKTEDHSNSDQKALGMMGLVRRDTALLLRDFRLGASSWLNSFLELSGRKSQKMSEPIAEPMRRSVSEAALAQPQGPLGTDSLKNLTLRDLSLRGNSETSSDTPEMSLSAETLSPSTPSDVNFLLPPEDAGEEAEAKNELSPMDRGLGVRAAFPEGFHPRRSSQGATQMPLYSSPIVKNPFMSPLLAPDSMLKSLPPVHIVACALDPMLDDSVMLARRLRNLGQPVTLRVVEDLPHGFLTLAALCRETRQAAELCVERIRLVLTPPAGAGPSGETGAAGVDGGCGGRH
# Assay: Human Hormone-Sensitive Lipase (HSL) enzyme inhibition assay (colorimetric, DMPT substrate)
# Assay type: biochemical
# Conditions: human full length HSL-His6, 2,3-dimercapto-1-propanol tributyrate substrate, 37° C. 20 minutes, absorbance at 405 nm; read-out: HSL hum IC50
# In short: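 Full-length human HSL with C-terminal His6, expressed in baculovirus-infected High 5 cells and Ni-NTA purified, was added (15 ug/ml stock) to 1.5 mM DMPT in 100 mM MOPS pH 7.2, 0.2 mg/ml fatty acid-free BSA containing compound. After 20 min at 37 °C, DTNB with SDS/Triton X-100 was added; A405 read after 15 min at RT.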
row,Structure (SMILES),IC50 [nM]
1,"CC(C)[C@]1(O)CC[C@@]2(CCN(c3ccc(OCC(F)(F)F)nc3)C2=O)CC1 [Example 109, (5α,8β)-8-Hydroxy-8-isopropyl-2-(6-(2,2,2-trifluoroethoxy)pyridin-3-yl)-2-aza-spiro[4.5]decan-1-one]",2220
2,"O=C1N(c2ccc(OC(F)(F)F)cc2)CC[C@]12CC[C@](O)(C(F)(F)F)CC2 [Example 113, (5α,8β)-8-Hydroxy-2-(4-trifluoromethoxy-phenyl)-8-trifluoromethyl-2-aza-spiro[4.5]decan-1-one]",2180
3,"COC[C@]1(O)CC[C@]2(CCN(c3ccc(OC(F)(F)F)cc3)C2=O)CC1 [Example 114, (5α,8α)-8-Hydroxy-8-methoxymethyl-2-(4-trifluoromethoxy-phenyl)-2-aza-spiro[4.5]decan-1-one]",30
4,"CCOC[C@]1(O)CC[C@]2(CCN(c3ccc(OC(F)(F)F)cc3)C2=O)CC1 [Example 117, (5α,8α)-8-Ethoxymethyl-8-hydroxy-2-(4-trifluoromethoxy-phenyl)-2-aza-spiro[4.5]decan-1-one]",20
5,"O=C1N(c2ccc(OC(F)(F)F)cc2)CC[C@]12CC[C@@](O)(CCO)CC2 [Example 118, (5α,8α)-8-Hydroxy-8-(2-hydroxy-ethyl)-2-(4-trifluoromethoxy-phenyl)-2-aza-spiro[4.5]decan-1-one]",100
6,"COCC[C@]1(O)CC[C@]2(CCN(c3ccc(OC(F)(F)F)cc3)C2=O)CC1 [Example 119, (5α,8α)-8-Hydroxy-8-(2-methoxy-ethyl)-2-(4-trifluoromethoxy-phenyl)-2-aza-spiro[4.5]decan-1-one]",30
7,"COCC[C@]1(OC)CC[C@]2(CCN(c3ccc(OC(F)(F)F)cc3)C2=O)CC1 [Example 120, (5α,8α)-8-Methoxy-8-(2-methoxy-ethyl)-2-(4-trifluoromethoxy-phenyl)-2-aza-spiro[4.5]decan-1-one]",100

# The remaining molecules from weak to strong by IC50, led by results:
row,IC50 [nM],Structure (SMILES)
1,2030,"CC(C)[C@]1(O)CC[C@@]2(CCN(c3ccc(OCC(F)(F)F)cc3)C2=O)CC1 [Example 107, (5α,8β)-8-Hydroxy-8-isopropyl-2-(4-(2,2,2-trifluoroethoxy)phenyl)-2-aza-spiro[4.5]decan-1-one]"
2,680,"COC[C@]1(O)CC[C@@]2(CCN(c3ccc(OC(F)(F)F)cc3)C2=O)CC1 [Example 115, (5α,8β)-8-Hydroxy-8-methoxymethyl-2-(4-trifluoromethoxy-phenyl)-2-aza-spiro[4.5]decan-1-one]"
3,190,"COC[C@]1(O)CC[C@]2(CCN(c3ccc(OCC(F)(F)F)nc3)C2=O)CC1 [Example 110, (5α,8α)-8-Hydroxy-8-(methoxymethyl)-2-(6-(2,2,2-trifluoroethoxy)pyridin-3-yl)-2-aza-spiro[4.5]decan-1-one]"
4,100,"CC#C[C@]1(O)CC[C@]2(CCN(c3ccc(OCC(F)(F)F)cc3)C2=O)CC1 [Example 111, (5α,8α)-8-Hydroxy-8-prop-1-ynyl-2-[4-(2,2,2-trifluoro-ethoxy)phenyl]-2-aza-spiro[4.5]decan-1-one]"
5,100,"COC[C@]1(O)CC[C@]2(CCN(c3ccc(C(F)(F)F)cc3)C2=O)CC1 [Example 121, (5α,8α)-8-Hydroxy-8-methoxymethyl-2-(4-trifluoromethyl-phenyl)-2-aza-spiro[4.5]decan-1-one]"
6,20,"CC(C)[C@]1(O)CC[C@]2(CCN(c3ccc(OCC(F)(F)F)nc3)C2=O)CC1 [Example 108, (5α,8α)-8-Hydroxy-8-isopropyl-2-(6-(2,2,2-trifluoroethoxy)pyridin-3-yl)-2-aza-spiro[4.5]decan-1-one]"
7,20,"O=C1N(c2ccc(OC(F)(F)F)cc2)CC[C@]12CC[C@@](O)(C(F)(F)F)CC2 [Example 112, (5α,8α)-8-Hydroxy-2-(4-trifluoromethoxy-phenyl)-8-trifluoromethyl-2-aza-spiro[4.5]decan-1-one]"
8,10,"CCOC(=O)C[C@]1(O)CC[C@]2(CCN(c3ccc(OC(F)(F)F)cc3)C2=O)CC1 [Example 116, [(5α,8α)-8-Hydroxy-1-oxo-2-(4-trifluoromethoxy-phenyl)-2-aza-spiro[4.5]dec-8-yl]-acetic acid ethyl ester]"
